Results: patent US20250368627A1, “PYRAZOLESULFONAMIDES AS ANTITUMOR AGENTS” (Peloton Therapeutics, Inc., a fully owned subsidiary of …, priority 2019, published 2025)
pEC50, pIC50: −log10 of the molar value.

Key:
[1] = target: T1, DDB1DB/DCAF15 and RBM39 R1R2 complex (Homo sapiens, UniProt Q14498+Q66K64); assay: DCAF15 RBM39 Complex Formation Assay (FRET); format: binding; settings: FRET ratio Em 665/Em 615, incubated overnight at 4° C.
T1 construct: Amino acids 150 to 331 of RBM39 were cloned into pGEX4T3; GST (from vector pGEX4T3); TEV cleavage site (N); made in house; host or cells: DDB1DB/His-DCAF15: baculovirus/Sf9 co-expression; RBM39 R1R2: E. coli (pGEX4T3)
Description: LANCE Eu-W1024 Anti-6×His and SureLight Allophycocyanin-anti-FLAG antibodies were purchased from Perkin Elmer. Human DDB1DB and His-tagged DCAF15 were co-expressed in baculovirus/sf9 system. While full length DDB1 contains three 7-bladed propellers termed A, B, and C, DDB1DB has only propeller A (amino acids 1 to 395) and C (amino acids 709-1140). The His-tagged DCAF15 contains six histidine residues directly preceding the DCAF15 sequence without any linker. An RBM39 fragment containing RRM1 and RRM2 was expressed in E. coli. Amino acids 150 to 331 of RBM39 were cloned into pGEX4T3 with an N-terminal TEV cleavage site and a C-terminal FLAG tag.
A compound of the present disclosure in DMSO (2 μL) was transferred to a 384-well assay plate. Compound was added in 14 points, 3-fold serial dilution (1 μM to 0.6 pico molar) in DMSO. […] FRET assay buffer (25 mM HEPES, pH 7.5, 100 mM NaCl, […], 0.5 mM TCEP, 0.005% Tween-20, 0.2 nM Eu—W1024 Anti-6×His, 50 nM SureLight Allophycocyanin-anti-FLAG, 20 nM DDB1DB/DCAF15, 50 nM RBM39 R1R2) was added and the resulting solution was incubated overnight at 4° C. The plate was placed in a plate reader (Spark 10) with excitation at 1=340 nm and emissions monitored at 1=665 nm and 1=615 nm, and the FRET ratio (Em 665/Em 615) was determined. Low signal controls containing no compound and high signal controls containing 10 mM indisulam were measured for each plate.
EC50 values were calculated using Dotmatics template equation for 4-parameter fit. Results are expressed as % formation using the following equation: […]

[2] = test system: HCT116 human colorectal carcinoma cells; assay: CellTiter-Glo Luminescent Cell Viability Assay; format: cell-based; settings: HCT-116, 72 h, 3 days
Experimental: HCT116 human colorectal carcinoma cells were used in these experiments. HCT116 cells were obtained from ATCC. CellTiter-Glo® Luminescent Cell Viability Assay Reagent was obtained from Promega.
About 3,000 cells were seeded into 96-well plate with […] of media (DMEM supplemented with 10% FBS, 100 units penicillin, and […] streptomycin per mL) the day before the experiment. For compound treatment, the master plate was prepared as follows: 100× compound stocks were prepared in a 96-well plate by 1 to 3 serial dilutions of 0.5 mM DMSO stocks. Each master plate contained serial dilution of 8 compounds, including the control compound E7820. […] of 100× compound stock was added to each well of the assay plate to give final concentrations of […]. Each concentration was tested in triplicate. After 3 days, cell viability was determined using CellTiter-Glo Luminescent Cell Viability Assay Reagent following the manufacturer's recommended protocol. Briefly, […] of CellTiter-Glo reagent was added to each well of the assay plate and the contents were mixed for 3 minutes at 600 rpm on a shaker (Thermomixer R). The plate was immediately placed in a plate reader (Synergy 2) and the luminescence signal (0.5 second per well integration time) was determined. IC50 values were calculated using Dotmatics software.

T1 sequence (Q66K64 whole entry, the tested form may be a part): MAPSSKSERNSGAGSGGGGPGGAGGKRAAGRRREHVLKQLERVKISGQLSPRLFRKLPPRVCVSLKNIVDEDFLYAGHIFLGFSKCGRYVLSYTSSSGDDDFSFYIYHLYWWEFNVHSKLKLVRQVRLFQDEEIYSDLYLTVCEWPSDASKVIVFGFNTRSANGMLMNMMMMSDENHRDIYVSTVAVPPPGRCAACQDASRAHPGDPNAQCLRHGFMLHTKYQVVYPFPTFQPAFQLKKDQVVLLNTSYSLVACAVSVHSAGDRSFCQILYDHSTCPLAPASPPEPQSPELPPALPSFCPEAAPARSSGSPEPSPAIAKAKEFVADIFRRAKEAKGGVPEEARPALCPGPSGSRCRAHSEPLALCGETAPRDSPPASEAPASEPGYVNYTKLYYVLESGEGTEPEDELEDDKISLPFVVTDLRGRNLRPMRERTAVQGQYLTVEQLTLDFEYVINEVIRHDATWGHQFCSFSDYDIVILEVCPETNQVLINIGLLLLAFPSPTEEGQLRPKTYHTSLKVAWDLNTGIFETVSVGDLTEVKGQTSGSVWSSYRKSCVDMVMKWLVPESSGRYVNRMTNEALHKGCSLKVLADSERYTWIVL
T1 sequence (Q14498 150-331): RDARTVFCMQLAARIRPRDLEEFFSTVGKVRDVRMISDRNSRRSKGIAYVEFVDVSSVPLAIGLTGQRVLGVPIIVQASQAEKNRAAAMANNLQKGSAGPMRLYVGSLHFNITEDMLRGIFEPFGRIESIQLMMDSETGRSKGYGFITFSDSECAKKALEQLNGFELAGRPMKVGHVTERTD
T1 sequence (Q16531 with tags, fused parts or gaps DEL396-708 partner): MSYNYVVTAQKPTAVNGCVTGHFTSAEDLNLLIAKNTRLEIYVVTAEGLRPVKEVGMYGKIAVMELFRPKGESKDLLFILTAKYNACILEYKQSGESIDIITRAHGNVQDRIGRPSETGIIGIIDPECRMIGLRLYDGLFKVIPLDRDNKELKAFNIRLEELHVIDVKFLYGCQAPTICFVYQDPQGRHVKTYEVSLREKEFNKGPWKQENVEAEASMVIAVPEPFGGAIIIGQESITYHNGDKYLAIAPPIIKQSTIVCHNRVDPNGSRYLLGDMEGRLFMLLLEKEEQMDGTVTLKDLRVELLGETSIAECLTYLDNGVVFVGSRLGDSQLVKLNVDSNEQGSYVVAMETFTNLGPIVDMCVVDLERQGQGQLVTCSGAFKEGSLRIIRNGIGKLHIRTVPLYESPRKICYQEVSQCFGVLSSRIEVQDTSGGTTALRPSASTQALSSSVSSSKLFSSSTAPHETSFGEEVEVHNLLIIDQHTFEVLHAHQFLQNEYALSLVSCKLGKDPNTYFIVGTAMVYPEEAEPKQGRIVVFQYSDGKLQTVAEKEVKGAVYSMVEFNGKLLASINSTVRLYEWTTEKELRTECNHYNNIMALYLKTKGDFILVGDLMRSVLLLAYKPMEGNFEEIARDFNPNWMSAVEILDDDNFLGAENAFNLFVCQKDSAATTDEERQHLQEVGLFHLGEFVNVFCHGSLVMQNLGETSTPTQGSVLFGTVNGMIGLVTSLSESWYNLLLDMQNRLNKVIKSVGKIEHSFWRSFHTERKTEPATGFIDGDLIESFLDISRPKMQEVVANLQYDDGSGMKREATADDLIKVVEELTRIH

pIC50 [1] | pEC50 [2] | Compound
< 6.00 | < 6.00 | N#Cc1cc(C(F)(F)F)ccc1-n1cc(S(=O)(=O)Nc2cccc3c(Cl)c[nH]c23)cn1 [Compound 22, N-(3-chloro-1H-indol-7-yl)-1-[2-cyano-4-(trifluoromethyl)phenyl]pyrazole-4-sulfonamide]
> 6.60 | < 6.00 | COCCOCCn1cc(S(=O)(=O)Nc2cccc3c(Cl)c[nH]c23)cn1 [Compound 23, N-(3-chloro-1H-indol-7-yl)-1-[2-(2-methoxyethoxy)ethyl]pyrazole-4-sulfonamide]
6.00 to 6.60 | < 6.00 | COCCOCCOCCn1cc(S(=O)(=O)Nc2cccc3c(Cl)c[nH]c23)cn1 [Compound 24, N-(3-chloro-1H-indol-7-yl)-1-[2-[2-(2-methoxyethoxy)ethoxy)ethyl]pyrazole-4-sulfonamide]
> 6.60 | 6.00 to 6.60 | Cc1ccc(NS(=O)(=O)c2cnn(CCO)c2)c2[nH]cc(C#N)c12 [Compound 25, N-(3-cyano-4-methyl-1H-indol-7-yl)-1-(2-hydroxyethyl)-1H-pyrazole-4-sulfonamide]
> 6.60 | < 6.00 | CC(C)(C)OC(=O)N1CCC(n2cc(S(=O)(=O)Nc3cccc4c(Cl)c[nH]c34)cn2)CC1 [Compound 26, tert-butyl 4-[4-[(3-chloro-1H-indol-7-yl)sulfamoyl]pyrazol-1-yl]piperidine-1-carboxylate]
> 6.60 | < 6.00 | CC(=O)N1CC(n2cc(S(=O)(=O)Nc3cccc4c(Cl)c[nH]c34)cn2)C1 [Compound 27, 1-(1-acetylazetidin-3-yl)-N-(3-chloro-1H-indol-7-yl)pyrazole-4-sulfonamide]
> 6.60 | 6.00 to 6.60 | CC1(Cn2cc(S(=O)(=O)Nc3cccc4c(Cl)c[nH]c34)cn2)COC1 [Compound 28, N-(3-chloro-1H-indol-7-yl)-1-[(3-methyloxetan-3-yl)methyl]pyrazole-4-sulfonamide]
> 6.60 | 6.00 to 6.60 | Cc1ccc(NS(=O)(=O)c2cnn(C3CCOC3)c2)c2[nH]cc(C#N)c12 (stereo not drawn) [Compound 29, N-(3-cyano-4-methyl-1H-indol-7-yl)-1-tetrahydrofuran-3-yl-pyrazole-4-sulfonamide]
< 6.00 | < 6.00 | O=S(=O)(Nc1cccc2c(Cl)c[nH]c12)c1cnn(-c2ccc(C(F)(F)F)cn2)c1 [Compound 30, N-(3-chloro-1H-indol-7-yl)-1-[5-(trifluoromethyl)-2-pyridyl]pyrazole-4-sulfonamide]
> 6.60 | < 6.00 | Cc1ccc(NS(=O)(=O)c2cnn(-c3ccc(C(F)(F)F)cn3)c2)c2[nH]cc(C#N)c12 [Compound 31, N-(3-cyano-4-methyl-1H-indol-7-yl)-1-[5-(trifluoromethyl)-2-pyridyl]pyrazole-4-sulfonamide]
> 6.60 | 6.00 to 6.60 | COC(Cn1cc(S(=O)(=O)Nc2cccc3c(Cl)c[nH]c23)cn1)OC [Compound 32, N-(3-chloro-1H-indol-7-yl)-1-(2,2-dimethoxyethyl)pyrazole-4-sulfonamide]
6.00 to 6.60 | < 6.00 | CC(C)(C)OC(=O)NCCn1cc(S(=O)(=O)Nc2cccc3c(Cl)c[nH]c23)cn1 [Compound 33, tert-butyl N-[2-[4-[(3-chloro-1H-indol-7-yl)sulfamoyl]pyrazol-1-yl]ethyl]carbamate]
> 6.60 | < 6.00 | NCCn1cc(S(=O)(=O)Nc2cccc3c(Cl)c[nH]c23)cn1 [Compound 34, 1-(2-aminoethyl)-N-(3-chloro-1H-indol-7-yl)pyrazole-4-sulfonamide]
> 6.60 | 6.00 to 6.60 | O=S(=O)(Nc1cccc2c(Cl)c[nH]c12)c1cnn(CCF)c1 [Compound 35, N-(3-chloro-1H-indol-7-yl)-1-(2-fluoroethyl)pyrazole-4-sulfonamide]
> 6.60 | > 6.60 | Cc1ccc(NS(=O)(=O)c2cnn(CCF)c2)c2[nH]cc(C#N)c12 [Compound 36, N-(3-cyano-4-methyl-1H-indol-7-yl)-1-(2-fluoroethyl)pyrazole-4-sulfonamide]
> 6.60 | < 6.00 | O=S(=O)(Nc1cccc2c(Cl)c[nH]c12)c1cnn(-c2ccccc2)c1 [Compound 37, N-(3-chloro-1H-indol-7-yl)-1-phenyl-pyrazole-4-sulfonamide]
> 6.60 | 6.00 to 6.60 | CC(C)n1cc(S(=O)(=O)Nc2cccc3c(Cl)c[nH]c23)cn1 [Compound 39, N-(3-chloro-1H-indol-7-yl)-1-isopropyl-pyrazole-4-sulfonamide]
> 6.60 | 6.00 to 6.60 | O=S(=O)(Nc1cccc2c(Cl)c[nH]c12)c1cnn(C2COC2)c1 [Compound 40, N-(3-chloro-1H-indol-7-yl)-1-(oxetan-3-yl)pyrazole-4-sulfonamide]
6.00 to 6.60 | < 6.00 | O=S(=O)(Nc1cccc2c(Cl)c[nH]c12)c1cnn(C2CCNCC2)c1 [Compound 41, N-(3-chloro-1H-indol-7-yl)-1-(4-piperidyl)pyrazole-4-sulfonamide]
> 6.60 | < 6.00 | O=S(=O)(Nc1cccc2c(Cl)c[nH]c12)c1cnn(CC2CNC2)c1 [Compound 43, 1-(azetidin-3-ylmethyl)-N-(3-chloro-1H-indol-7-yl)pyrazole-4-sulfonamide]
> 6.60 | < 6.00 | CC1(Cn2cc(S(=O)(=O)Nc3cccc4c(Cl)c[nH]c34)cn2)CSC1 [Compound 44, N-(3-chloro-1H-indol-7-yl)-1-[(3-methylthietan-3-yl)methyl]pyrazole-4-sulfonamide]
> 6.60 | 6.00 to 6.60 | CC1(Cn2cc(S(=O)(=O)Nc3cccc4c(Cl)c[nH]c34)cn2)CS(=O)(=O)C1 [Compound 45, N-(3-chloro-1H-indol-7-yl)-1-[(3-methyl-1,1-dioxo-thietan-3-yl)methyl]pyrazole-4-sulfonamide]
> 6.60 | 6.00 to 6.60 | Cn1cc(S(=O)(=O)Nc2cccc3c(C#N)c[nH]c23)cn1 [Compound 46, N-(3-cyano-1H-indol-7-yl)-1-methyl-pyrazole-4-sulfonamide]
> 6.60 | 6.00 to 6.60 | O=S(=O)(Nc1cccc2c(Cl)c[nH]c12)c1cnn(C2CCC2)c1 [Compound 47, N-(3-chloro-1H-indol-7-yl)-1-cyclobutyl-pyrazole-4-sulfonamide]
> 6.60 | 6.00 to 6.60 | COCCn1cc(S(=O)(=O)Nc2cccc3c(Cl)c[nH]c23)cn1 [Compound 49, N-(3-chloro-1H-indol-7-yl)-1-(2-methoxyethyl)pyrazole-4-sulfonamide]
> 6.60 | 6.00 to 6.60 | O=S(=O)(Nc1cccc2c(Cl)c[nH]c12)c1cnn(CC2CC2)c1 [Compound 51, N-(3-chloro-1H-indol-7-yl)-1-(cyclopropylmethyl)pyrazole-4-sulfonamide]
> 6.60 | 6.00 to 6.60 | N#CC1(Cn2cc(S(=O)(=O)Nc3cccc4c(Cl)c[nH]c34)cn2)CC1 [Compound 52, N-(3-chloro-1H-indol-7-yl)-1-[(1-cyanocyclopropyl)methyl]pyrazole-4-sulfonamide]
> 6.60 | < 6.00 | O=S(=O)(Nc1cccc2c(Cl)c[nH]c12)c1cnn(CC2CC(F)(F)C2)c1 [Compound 53, N-(3-chloro-1H-indol-7-yl)-1-[(3,3-difluorocyclobutyl)methyl]pyrazole-4-sulfonamide]
> 6.60 | 6.00 to 6.60 | Cn1cc(S(=O)(=O)Nc2ccc(F)c3c(Cl)c[nH]c23)cn1 [Compound 54, N-(3-chloro-4-fluoro-1H-indol-7-yl)-1-methyl-pyrazole-4-sulfonamide]
> 6.60 | 6.00 to 6.60 | O=S(=O)(Nc1cccc2c(Cl)c[nH]c12)c1cnn(CF)c1 [Compound 56, N-(3-chloro-1H-indol-7-yl)-1-(fluoromethyl)pyrazole-4-sulfonamide]
